Source: BigSolDB 2.1

Cc1c(C(=O)O)cc([N+](=O)[O-])cc1[N+](=O)[O-]
solubility (mole fraction)
Details	288.15 K	293.15 K	298.15 K	303.15 K	308.15 K	313.15 K	318.15 K	323.15 K	328.15 K	333.15 K
in acetonitrile	0.0071	0.0084	0.00994	0.012	0.0145	0.0176	0.0209	0.0248	0.0292	0.0341
in cyclohexane	1.4e-05	1.96e-05	2.69e-05	3.64e-05	4.87e-05	6.37e-05	8.12e-05	0.000103	0.000131	0.000166
in ethanol	0.0467	0.0526	0.0604	0.0695	0.0783	0.0882	0.099	0.11	0.123	0.134
in ethyl acetate	0.0237	0.0271	0.0312	0.0359	0.041	0.0467	0.0536	0.0611	0.0694	0.0781
in isopropanol	0.0102	0.0121	0.0147	0.017	0.0202	0.0232	0.0276	0.0327	0.0384	0.0442
in n-butanol	0.0109	0.0129	0.0152	0.0179	0.0209	0.0243	0.0284	0.034	0.0393	0.0457
in n-heptanol	0.0128	0.0146	0.017	0.0208	0.025	0.0295	0.0341	0.0396	0.0458	0.0524
in n-hexanol	0.00982	0.0114	0.0131	0.0151	0.0177	0.0208	0.0244	0.0288	0.0338	0.0394
in n-pentanol	0.012	0.0138	0.0165	0.0193	0.0226	0.026	0.0303	0.0356	0.0414	0.0478
in n-propanol	0.0126	0.0146	0.0169	0.0202	0.0239	0.0278	0.0326	0.0381	0.0442	0.0505
in sec-butanol	0.0114	0.0134	0.0158	0.0187	0.0219	0.0257	0.03	0.0349	0.0405	0.0467
in toluene	0.0174	0.0207	0.0242	0.0284	0.0328	0.0377	0.0434	0.0493	0.0558	0.0628
in water	1.67e-05	2.35e-05	3.5e-05	4.55e-05	5.87e-05	7.99e-05	0.000108	0.000137	0.000171	0.000218
